{"source": "patent US10336707B2", "about": "“Heterocyclic derivatives modulating activity of certain protein kinases” (EUDENDRON S.R.L., priority 2014, dated 2019)", "key": {"ALK-negative HL60 cells": {"tested_on": "ALK-negative HL60 cells", "assay": "Tritiated thymidine uptake cell proliferation assay, HL60 (ALK-negative control)", "format": "cell-based", "details": "Homo sapiens, HL-60; cell line HL60, ALK negative control; read-out: IC50 of cellular proliferation, HL60", "method": "(§1) Method: Tritiated Thymidine Uptake Cell Proliferation Assay\n(§2) The following procedure was used with parent untransformed BaF3 cells, BaF3 cells transformed with the oncogenic fusion protein NPM/ALK, NPM/ALK positive SUDHL-1 cells, NPM/ALK positive SUPM2, ALK-negative HL60 cells, NPM/ALK positive KARPAS-299 cells. The parent untransformed BaF3 cells or Alk-negative HL60 cells are used as controls. Cells were seeded in U-bottomed 96-well plates at 10000 cells/well in a volume of 100 μl in supplemented medium. In the case of the parent untransformed BaF3 cells, the medium was supplemented with IL-3. Serial dilutions of inhibitors were added to the appropriate wells and volumes adjusted to 200 μl. Controls were treated with the equivalent volume of vehicle, DMSO, alone. Plates were incubated at 37° C. for 72 h. 3[H]-thymidine (1 μCi/well) was added for the last 16 h of incubation. Cells were harvested on to paper filters and 3[H]-thymidine incorporation was measured using a scintillation counter (1430 MicroBeta, Wallac, Turku, Finland). The 50% inhibitory concentration (IC50) was defined as the concentration of inhibitor, expressed in nanomolar units, that gave a 50% decrease in 3[H]-thymidine uptake compared with controls.\nPotentially toxic effects were assessed using parent untransformed BaF3 cells or ALK negative HL60 cells. […]"}, "BaF3 NPM-ALK L1152R": {"target": "T1, BaF3 NPM-ALK L1152R (Homo sapiens, UniProt Q9UM73, L1152R, cells depend on it)", "T1 construct": "fused on or other part: P06748 (Nucleophosmin)", "T1 sequence (Q9UM73 whole entry L1152R, the tested form may be a part)": "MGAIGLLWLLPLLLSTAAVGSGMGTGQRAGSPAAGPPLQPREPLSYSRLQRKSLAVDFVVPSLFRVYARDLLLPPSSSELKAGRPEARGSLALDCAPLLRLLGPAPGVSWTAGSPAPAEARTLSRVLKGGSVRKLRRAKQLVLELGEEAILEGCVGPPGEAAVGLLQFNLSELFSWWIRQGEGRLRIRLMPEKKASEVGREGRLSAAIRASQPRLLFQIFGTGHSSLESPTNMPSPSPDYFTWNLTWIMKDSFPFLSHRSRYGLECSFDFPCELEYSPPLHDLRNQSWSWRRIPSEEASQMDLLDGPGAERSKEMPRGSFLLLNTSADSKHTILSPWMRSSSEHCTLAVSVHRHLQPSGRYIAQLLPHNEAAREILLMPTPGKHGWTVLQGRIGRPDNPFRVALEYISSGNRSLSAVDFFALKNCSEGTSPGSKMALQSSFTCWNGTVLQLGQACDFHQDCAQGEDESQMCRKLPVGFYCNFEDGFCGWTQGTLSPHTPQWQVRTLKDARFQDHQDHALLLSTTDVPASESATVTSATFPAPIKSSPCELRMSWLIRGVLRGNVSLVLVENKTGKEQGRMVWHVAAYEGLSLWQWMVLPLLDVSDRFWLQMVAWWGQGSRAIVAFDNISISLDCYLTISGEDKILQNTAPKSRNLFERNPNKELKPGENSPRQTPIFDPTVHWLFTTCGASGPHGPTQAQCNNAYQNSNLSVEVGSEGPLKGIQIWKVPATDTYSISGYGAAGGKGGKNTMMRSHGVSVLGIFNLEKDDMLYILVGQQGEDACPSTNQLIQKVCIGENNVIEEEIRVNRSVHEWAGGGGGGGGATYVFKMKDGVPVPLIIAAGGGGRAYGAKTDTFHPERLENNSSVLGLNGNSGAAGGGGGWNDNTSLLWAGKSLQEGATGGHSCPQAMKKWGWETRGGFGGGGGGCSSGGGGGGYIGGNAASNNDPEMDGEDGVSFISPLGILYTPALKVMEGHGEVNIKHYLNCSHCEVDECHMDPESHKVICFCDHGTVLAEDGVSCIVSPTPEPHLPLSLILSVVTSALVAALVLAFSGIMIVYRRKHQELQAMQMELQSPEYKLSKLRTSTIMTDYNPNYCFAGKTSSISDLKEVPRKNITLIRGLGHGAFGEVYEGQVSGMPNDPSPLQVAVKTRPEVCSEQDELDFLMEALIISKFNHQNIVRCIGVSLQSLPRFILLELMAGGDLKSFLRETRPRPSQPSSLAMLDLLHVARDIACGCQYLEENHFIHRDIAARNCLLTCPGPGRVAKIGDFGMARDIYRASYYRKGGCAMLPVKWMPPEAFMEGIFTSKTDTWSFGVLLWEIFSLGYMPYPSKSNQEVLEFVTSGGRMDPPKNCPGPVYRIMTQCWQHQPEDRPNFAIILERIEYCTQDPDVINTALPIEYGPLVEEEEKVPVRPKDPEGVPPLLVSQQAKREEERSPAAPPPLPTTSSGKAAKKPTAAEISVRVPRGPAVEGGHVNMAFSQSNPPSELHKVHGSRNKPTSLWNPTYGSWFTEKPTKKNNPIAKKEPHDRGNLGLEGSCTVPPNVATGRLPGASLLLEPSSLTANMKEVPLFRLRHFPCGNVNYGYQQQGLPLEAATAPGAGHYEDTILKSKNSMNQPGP", "assay": "Tritiated thymidine uptake cell proliferation assay, BaF3 NPM-ALK L1152R", "format": "cell-based, murine", "details": "cell line BaF3 NPM-ALK L1152R; read-out: IC50 of cellular proliferation, BaF3 NPM-ALK L1152R", "method": "as §1, §2\n(§3) In Table 4 are reported the IC50 of cellular proliferation assays of example 3 versus ALK positive, mutated and negative cell lines."}, "[1]": {"tested_on": "NPM/ALK positive SUDHL-1 cells", "assay": "Tritiated thymidine uptake cell proliferation assay, SUDHL1", "format": "cell-based", "details": "Homo sapiens, SU-DHL-1; cell line SUDHL1; read-out: IC50 of cellular proliferation, SUDHL1", "method": "as §1, §2, §3"}, "BaF3 NPM-ALK WT": {"target": "T2, BaF3 NPM-ALK WT (Homo sapiens, UniProt Q9UM73)", "T2 construct": "fused on or other part: P06748 (Nucleophosmin)", "T2 sequence (Q9UM73 whole entry, change not shown, the tested form may be a part)": "as the sequence (Q9UM73 whole entry L1152R, the tested form may be a part) above, with R1152L counted along it", "assay": "Tritiated thymidine uptake cell proliferation assay, BaF3 NPM-ALK WT", "format": "cell-based, murine", "details": "cell line BaF3 NPM-ALK WT; read-out: IC50 of cellular proliferation, BaF3 NPM-ALK WT", "method": "as §1, §2, §3"}}}
{"compound": "CN1CCN(c2ccc(C(=O)Nc3n[nH]c4cc(-c5ccc(O)cc5)c(Cc5cc(F)cc(F)c5)cc34)c(NC3CCOCC3)c2)CC1", "note": "[Example 3, N-[5-[(3,5-difluorophenyl)methyl]-6-(4-hydroxyphenyl)-1H-indazol-3-yl]-4-(4-methylpiperazin-1-yl)-2-(tetrahydropyran-4-ylamino)benzamide]", "values": [{"measurement": "IC50", "setting": "ALK-negative HL60 cells", "result": 17000, "unit": "nM"}, {"measurement": "GI50", "setting": "BaF3 NPM-ALK L1152R", "result": 18, "unit": "nM"}, {"measurement": "IC50", "setting": "[1]", "result": 36, "unit": "nM"}, {"measurement": "GI50", "setting": "BaF3 NPM-ALK WT", "result": 18, "unit": "nM"}]}
